Measurements taken from patent US8975246B2, “Bile acid or bile salt fatty acid conjugates” (Galmed Research and Development Ltd., priority 2001, dated 2015).

Tests used:
Format in all cases: in vivo
Wistar male rats = assay: Fasting blood glucose, rats on regular or high fat diet; details: 4 weeks
Description: The effects of BAFACs on fasting blood glucose were tested in 3 animal species: Hamsters, Rats and Mice. The animals were kept on regular or high fat diets (as specified). In each group half of the animals received a daily BAFAC dose (150 mg/kg) dispersed in 0.5 ml of saline by gavage. The other half received similarly, by gavage, an equal volume of saline only. All animals were kept on a 12 hr day/night cycle at 22° C. throughout the experiment. They had access to water ad libidum.
Wistar male rats 4 weeks old (100-120 gm) were fed a regular chow diet or a high fat diet enriched with lard (10%), cholesterol (2.5%) and cholic acid (0.5%) (w/w). Blood and organ samples were obtained after sacrifice (in the fasting state) after 4 weeks of the trial. Half of the animals in each group were given BAFAC 150 mg/kg; the others were given an equal volume of saline. There were 7 rats in the control and test groups on a regular diet and 6 rats in each group given a high fat diet.
The hamsters and rats on the high fat diets developed fatty liver (confirmed by chemical measurement of liver fat), a high fasting blood glucose, and represented models of NIDDM.
ICR male mice, 4 weeks old (approx. 20 gm) were fed a regular diet. Streptozotocin 200 mg/kg was injected i.p. on the first day of the experiment. (This induced damage to the islet cells of the pancreas and simulated IDDM). […]

human patients [1] = assay: Human study: change in adiponectin; parameters: Change in Adiponectin from Baseline, Mean / Change in Adiponectin from Baseline, Median / Change in Adiponectin from Baseline, Max: unit not given here; details: for Change in Adiponectin from Baseline, Max / Change in Adiponectin from Baseline, Mean / Change in Adiponectin from Baseline, Median / Change in Adiponectin from Baseline, Min: 3 months
Description: (§1) The effects of BAFACs on disorders associated with Fatty liver, insulin resistance and altered glucose metabolism were tested on 60 human patients. Experiments were subdivided to 2 dosage regimens: Aramchol 300 mg daily (high dose) and 100 mg daily (low dose) respectively for a total period time of 3 months. The Aramchol:placebo ratio is of 2:1 for the low dose arm, and 1:1 for the high dose arms.
(§2) The study period included a 3 month treatment period with Aramchol low dose, or Aramchol high dose, or placebo, and a one month follow-up period. Aramchol was given daily orally. During the treatment period, all patients attended periodic […] (at first month) and subsequently monthly study-center visits in order to assess safety and efficacy of the treatment.
(§3) The results are shown using two known in the art principle statistical evaluation on, Intention-To-Treat (ITT) and Per Protocol (PP) populations. The ITT principle asserts that the effect of a treatment policy can be best assessed by evaluation on the basis of the intention to treat a subject (i.e. the planned treatment regimen) rather than the actual treatment given. It has the consequence that subjects allocated to a treatment group should be followed up, assessed and analyzed as members of that group irrespective of their compliance to the planned course of treatment. […] Compliance covers such considerations as exposure to treatment, availability of measurements and absence of major protocol violations.

human patients [2] = assay: Human study: change in insulin; details: for Change from Baseline in Insulin, Max / Change from Baseline in Insulin, Mean / Change from Baseline in Insulin, Median / Change from Baseline in Insulin, Min: ITT
Description: as §1, §2, §3

Golden Syrian Hamsters = assay: Serum cholesterol of hamsters on lithogenic diet; details: Lithogenic diet 1 + BAFAC II 150 mg/kg/day by gavage, 10 W
Description: Golden Syrian Hamsters-(Anilab, Rehovot, Israel) 4-6 weeks old weighing 90-110 gm were used. They were fed a lithogenic diet (No. 1) consisting of their regular diet supplemented with (w/w) cholesterol 1%, Palmitic Acid 1.2%, Corn Oil 2% (modified from Ayvad et al., Lipids, 1992; 27:993-998) for 10 weeks. Half of the animals were given in addition 3β-arachidylamido-7α,12α-dihydroxy-5β-cholan-24-oic acid at a dose of 150 mg/kg/day suspended in saline, by intragastric gavage. The control animals were similarly given an equal volume of saline. After ten weeks the animals were anesthetized, heart blood was drawn for analysis. The liver and other organs were removed. Serum cholesterol levels were determined by autoanalyzer.

human patients [3] = assay: Human study: change in weight; parameters: Change in Weight, Mean / Change in Weight, Median / Change in Weight, Max: unit not given here; details: for Change in Weight, Max / Change in Weight, Mean / Change in Weight, Median / Change in Weight, Min: 3 months
Description: as §1, §2, §3

[4] = tested on: Golden Syrian Male Hamsters; assay: Fatty liver histologic score, hamsters; details: Lithogenic diet 1 + BAFAC 150 mg/kg/day, 10 W
Description: The presence of fatty liver was evaluated by a pathologist unaware of the treatments, scoring coded slides in a blinded manner.
The scoring system was as follows:
Golden Syrian Male Hamsters (Anilab, Rehovot, Israel) […] weighing 90-110 gm were used. They were fed a lithogenic diet (No 1). Half of the animals were given in addition 150 mg/kg/day of 3β-arachidylamido-7α,12α-dihydroxy-5β-cholan-24-oic acid. The compound was given suspended in saline, by intragastric gavage. Control animals were similarly given saline only. After 10 weeks the animals were anesthetized and sacrificed. The liver and other organs were removed and placed in formaline for histologic examination.

CCCCCCCCCCCCCCCCCCCC(=O)N[C@H]1CC[C@@]2(C)[C@@H](C1)C[C@@H](O)[C@@H]1[C@@H]2C[C@H](O)[C@]2(C)[C@@H]([C@H](C)CCC(=O)O)CC[C@@H]12 [Aramchol, 3β-arachidylamido-7α,12α-dihydroxy-5β-cholan-24-oic acid]
fasting blood glucose (Wistar male rats; high fat diet (fatty liver), BAFAC 150 mg/kg by gavage, vs saline): markedly reduced
blood glucose (Wistar male rats; normal (regular) diet, no hyperglycemia or fatty liver, BAFAC 150 mg/kg): no effect
Change in Adiponectin from Baseline, Max (human patients [1]; Aramchol 100 mg/d oral, ITT): 11.1
Change in Adiponectin from Baseline, Mean (human patients [1]; Aramchol 100 mg/d oral, ITT): −3.4
Change in Adiponectin from Baseline, Median (human patients [1]; Aramchol 100 mg/d oral, ITT): −2.7
Change in Adiponectin from Baseline, Min (human patients [1]; Aramchol 100 mg/d oral, ITT): −46.3
Change in Adiponectin from Baseline, Max (human patients [1]; Aramchol 100 mg/d oral, PP): 11.1
Change in Adiponectin from Baseline, Mean (human patients [1]; Aramchol 100 mg/d oral, PP): −3.4
Change in Adiponectin from Baseline, Median (human patients [1]; Aramchol 100 mg/d oral, PP): −2.3
Change in Adiponectin from Baseline, Min (human patients [1]; Aramchol 100 mg/d oral, PP): −46.3
Change in Adiponectin from Baseline, Max (human patients [1]; Aramchol 300 mg/d oral, ITT): 41.7
Change in Adiponectin from Baseline, Mean (human patients [1]; Aramchol 300 mg/d oral, ITT): 1.8
Change in Adiponectin from Baseline, Median (human patients [1]; Aramchol 300 mg/d oral, ITT): −1.3
Change in Adiponectin from Baseline, Min (human patients [1]; Aramchol 300 mg/d oral, ITT): −28.0
Change in Adiponectin from Baseline, Max (human patients [1]; Aramchol 300 mg/d oral, PP): 41.7
Change in Adiponectin from Baseline, Mean (human patients [1]; Aramchol 300 mg/d oral, PP): 1.8
Change in Adiponectin from Baseline, Median (human patients [1]; Aramchol 300 mg/d oral, PP): −1.3
Change in Adiponectin from Baseline, Min (human patients [1]; Aramchol 300 mg/d oral, PP): −28.0
levels of adiponectin (in words) (human patients [1]; Aramchol 300 mg/d, tested subjects, Tables 5 and 6): increases the levels of adiponectin
Change from Baseline in Insulin, Max (human patients [2]; Aramchol 100 mg/d oral): 38.9
Change from Baseline in Insulin, Mean (human patients [2]; Aramchol 100 mg/d oral): 5.6
Change from Baseline in Insulin, Median (human patients [2]; Aramchol 100 mg/d oral): 2.5
Change from Baseline in Insulin, Min (human patients [2]; Aramchol 100 mg/d oral): −7.4
Change from Baseline in Insulin, Max (human patients [2]; Aramchol 300 mg/d oral): 9.1
Change from Baseline in Insulin, Mean (human patients [2]; Aramchol 300 mg/d oral): −21.1
Change from Baseline in Insulin, Median (human patients [2]; Aramchol 300 mg/d oral): 0.9
Change from Baseline in Insulin, Min (human patients [2]; Aramchol 300 mg/d oral): −367.5
basal insulin levels (in words) (human patients [2]; tested subjects, Table 8): reduces basal insulin levels
Serum Cholesterol (mean + StD) (Golden Syrian Hamsters): 202 (59.6) mg %
Change in Weight, Max (human patients [3]; Aramchol 100 mg/d oral, ITT): 4.00
Change in Weight, Mean (human patients [3]; Aramchol 100 mg/d oral, ITT): 0.18
Change in Weight, Median (human patients [3]; Aramchol 100 mg/d oral, ITT): 0.00
Change in Weight, Min (human patients [3]; Aramchol 100 mg/d oral, ITT): −5.00
Change in Weight, Max (human patients [3]; Aramchol 100 mg/d oral, PP): 4.00
Change in Weight, Mean (human patients [3]; Aramchol 100 mg/d oral, PP): 0.08
Change in Weight, Median (human patients [3]; Aramchol 100 mg/d oral, PP): 0.00
Change in Weight, Min (human patients [3]; Aramchol 100 mg/d oral, PP): −5.00
Change in Weight, Max (human patients [3]; Aramchol 300 mg/d oral, ITT): 3.50
Change in Weight, Mean (human patients [3]; Aramchol 300 mg/d oral, ITT): −1.15
Change in Weight, Median (human patients [3]; Aramchol 300 mg/d oral, ITT): −1.25
Change in Weight, Min (human patients [3]; Aramchol 300 mg/d oral, ITT): −4.40
Change in Weight, Max (human patients [3]; Aramchol 300 mg/d oral, PP): 3.50
Change in Weight, Mean (human patients [3]; Aramchol 300 mg/d oral, PP): −1.15
Change in Weight, Median (human patients [3]; Aramchol 300 mg/d oral, PP): −1.25
Change in Weight, Min (human patients [3]; Aramchol 300 mg/d oral, PP): −4.40
body weight (in words) (human patients [3]; Aramchol 300 mg/d, tested subjects, Tables 9 and 10): reduces body weight
Fatty Liver Scores: number of animals with score 0 ([4]; n 7, 0 - No fatty liver): 6
Fatty Liver Scores: number of animals with score 2 ([4]; n 7, 2 - Mild fatty liver): 1
Fatty Liver Score, mean ([4]; score 0 (no fatty liver) to 4 (severe, >50% of liver surface)): 0.28
